Reference: ChEMBL document CHEMBL1201862, “PubChem BioAssay data set” (2004)
The source made the active and inactive calls. For most assays here, no stated cut-off is given here; in the data, actives have a measured EC50 and inactives only a lower limit.

Columns and labels:
[1] = molecular target: FAD-linked sulfhydryl oxidase ALR (Homo sapiens, UniProt P55789); test: ALR-catalysed DTT oxidation blockers – biochemical, H2O2 detection, luminescence, cherry-pick, dose response (AID 493248)
[2] = molecular target: T1, RNA-binding protein pos-1 (Caenorhabditis elegans, UniProt G5EF15); test: disruptors of C. elegans POS-1 RNA interaction – biochemical, fluorescence polarization, dose response (AID 1964);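 further: purified POS-1 fused to maltose binding protein made in E. coli; potency of compounds blocking POS-1 binding to fluorescent RNA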
T1 sequence (G5EF15 whole entry): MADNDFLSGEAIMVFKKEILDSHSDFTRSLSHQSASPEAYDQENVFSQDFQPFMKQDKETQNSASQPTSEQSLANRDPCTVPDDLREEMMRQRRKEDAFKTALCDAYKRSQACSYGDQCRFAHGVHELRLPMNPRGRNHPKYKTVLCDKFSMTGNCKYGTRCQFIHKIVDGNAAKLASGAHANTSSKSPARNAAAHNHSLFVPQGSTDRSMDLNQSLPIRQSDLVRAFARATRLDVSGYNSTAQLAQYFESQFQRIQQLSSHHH

[3] = molecular target: T2, Zinc finger protein mex-5 (Caenorhabditis elegans, UniProt Q9XUB2); test: potency of MEX-5 RNA-binding blockers – biochemical, C. elegans, fluorescence polarization, dose response (AID 1960)
T2 sequence (Q9XUB2 whole entry): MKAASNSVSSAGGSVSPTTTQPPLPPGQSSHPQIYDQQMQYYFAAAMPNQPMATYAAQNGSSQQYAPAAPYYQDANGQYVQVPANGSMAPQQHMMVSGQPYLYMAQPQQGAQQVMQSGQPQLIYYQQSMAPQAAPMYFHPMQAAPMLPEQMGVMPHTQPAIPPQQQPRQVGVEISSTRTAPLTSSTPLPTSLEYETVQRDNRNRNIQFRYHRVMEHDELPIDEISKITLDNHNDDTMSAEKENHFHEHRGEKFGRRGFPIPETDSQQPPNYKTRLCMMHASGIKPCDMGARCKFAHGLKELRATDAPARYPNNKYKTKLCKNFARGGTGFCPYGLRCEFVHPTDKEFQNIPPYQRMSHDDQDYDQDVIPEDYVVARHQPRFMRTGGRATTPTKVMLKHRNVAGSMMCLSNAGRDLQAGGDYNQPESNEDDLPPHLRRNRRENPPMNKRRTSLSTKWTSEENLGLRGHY

[4] = molecular target: Luciferin 4-monooxygenase (Photinus pyralis, UniProt P08659); test: inhibition of purified Photinus pyralis luciferase – biochemical, luminescence, dose response (AID 1891)
Sequence of Luciferin 4-monooxygenase (P08659 whole entry): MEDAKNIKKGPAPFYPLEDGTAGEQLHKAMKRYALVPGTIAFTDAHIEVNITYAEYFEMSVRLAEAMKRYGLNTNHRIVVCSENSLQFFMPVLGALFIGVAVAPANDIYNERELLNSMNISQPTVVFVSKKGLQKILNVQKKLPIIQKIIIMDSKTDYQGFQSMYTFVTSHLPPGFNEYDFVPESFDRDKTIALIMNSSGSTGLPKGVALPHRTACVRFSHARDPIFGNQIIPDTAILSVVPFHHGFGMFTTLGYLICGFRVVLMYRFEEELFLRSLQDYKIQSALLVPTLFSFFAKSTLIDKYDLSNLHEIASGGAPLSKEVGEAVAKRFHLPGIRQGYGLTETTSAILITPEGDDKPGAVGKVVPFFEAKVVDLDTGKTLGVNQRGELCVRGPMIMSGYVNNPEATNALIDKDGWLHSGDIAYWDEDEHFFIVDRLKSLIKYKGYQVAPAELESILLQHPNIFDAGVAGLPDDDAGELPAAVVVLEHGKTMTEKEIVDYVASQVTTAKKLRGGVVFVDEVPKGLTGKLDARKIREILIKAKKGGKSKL

[5] = Luminescence Cell-Based Dose Confirmation HTS to Identify Inhibitors of Platelet Dense Granule Release. [Related pubchem assays: 1663 (Primary HTS), 1678 (Summary of Project)]; assay type: functional
Genome polyprotein = Genome polyprotein (dengue virus type 2, UniProt P29990); test: flavivirus cap methylation enzyme inhibition – biochemical, confirmation dose response, primary screen (AID 588689); assay type: functional
Sequence of Genome polyprotein (P29990 2492-3391 limits assumed): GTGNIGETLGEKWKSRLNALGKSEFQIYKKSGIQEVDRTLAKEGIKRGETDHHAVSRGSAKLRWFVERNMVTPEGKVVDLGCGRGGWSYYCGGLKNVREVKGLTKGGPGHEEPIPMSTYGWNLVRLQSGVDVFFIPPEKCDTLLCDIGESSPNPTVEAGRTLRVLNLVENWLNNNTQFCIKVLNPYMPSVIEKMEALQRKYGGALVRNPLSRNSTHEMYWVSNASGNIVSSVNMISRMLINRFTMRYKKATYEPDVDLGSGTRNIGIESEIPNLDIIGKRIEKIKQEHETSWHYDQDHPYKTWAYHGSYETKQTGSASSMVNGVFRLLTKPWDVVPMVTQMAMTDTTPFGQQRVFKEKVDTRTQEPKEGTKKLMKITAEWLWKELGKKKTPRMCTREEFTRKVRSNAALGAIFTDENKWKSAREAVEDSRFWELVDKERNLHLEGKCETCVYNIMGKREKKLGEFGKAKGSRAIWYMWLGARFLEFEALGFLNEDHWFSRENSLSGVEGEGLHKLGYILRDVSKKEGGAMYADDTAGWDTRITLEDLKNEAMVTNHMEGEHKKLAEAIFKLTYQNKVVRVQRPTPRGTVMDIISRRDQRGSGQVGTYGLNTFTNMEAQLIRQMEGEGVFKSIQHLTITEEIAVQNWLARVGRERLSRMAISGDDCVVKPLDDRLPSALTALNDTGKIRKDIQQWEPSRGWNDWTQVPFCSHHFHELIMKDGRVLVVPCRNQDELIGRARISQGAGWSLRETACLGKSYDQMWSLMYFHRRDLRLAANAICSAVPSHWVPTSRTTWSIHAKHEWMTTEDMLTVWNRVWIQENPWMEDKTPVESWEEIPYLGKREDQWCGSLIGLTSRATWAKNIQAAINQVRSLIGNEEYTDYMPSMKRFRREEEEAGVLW

BJ [6] = test: BJ-TERT fibroblast viability loss – cell-based, RAS-independent, luminescence, dose response (AID 1933); assay type: functional; settings: Homo sapiens
BJ [7] = test: cells; assay type: functional, cell-based; settings: Homo sapiens
[8] = DRD fibroblast viability loss – cell-based, non-viral oncogenic, luminescence, dose response (AID 1934); assay type: functional; settings: Homo sapiens
[9] = molecular target: T3, Corticotropin-releasing factor receptor 2/Corticotropin-releasing factor-binding protein (Homo sapiens, UniProt P24387+Q13324); test: Dose Response confirmation of uHTS hits for small molecule antagonists of the CRF-binding protein and CRF-R2 receptor complex.; assay type: functional; settings: read-out: IC50_Mean
T3 sequence (Q13324 whole entry): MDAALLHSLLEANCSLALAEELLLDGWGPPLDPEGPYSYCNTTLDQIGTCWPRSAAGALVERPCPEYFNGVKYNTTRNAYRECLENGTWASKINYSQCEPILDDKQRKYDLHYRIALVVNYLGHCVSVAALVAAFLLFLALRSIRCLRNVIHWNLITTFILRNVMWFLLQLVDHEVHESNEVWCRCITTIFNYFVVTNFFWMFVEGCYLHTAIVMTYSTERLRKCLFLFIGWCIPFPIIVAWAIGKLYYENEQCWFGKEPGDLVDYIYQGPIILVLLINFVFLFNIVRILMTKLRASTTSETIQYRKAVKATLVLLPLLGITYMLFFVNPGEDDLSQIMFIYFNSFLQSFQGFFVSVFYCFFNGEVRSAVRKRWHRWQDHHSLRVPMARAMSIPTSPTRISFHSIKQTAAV
T3 sequence (P24387 whole entry): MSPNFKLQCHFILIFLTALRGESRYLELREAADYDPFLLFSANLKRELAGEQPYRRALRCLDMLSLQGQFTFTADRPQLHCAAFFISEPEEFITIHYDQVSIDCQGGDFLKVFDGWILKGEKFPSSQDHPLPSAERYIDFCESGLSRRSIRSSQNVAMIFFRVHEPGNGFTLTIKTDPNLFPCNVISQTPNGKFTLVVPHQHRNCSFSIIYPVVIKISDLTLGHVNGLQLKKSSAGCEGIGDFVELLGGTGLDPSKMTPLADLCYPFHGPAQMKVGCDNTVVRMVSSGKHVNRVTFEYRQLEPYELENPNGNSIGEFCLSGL

[10] = molecular target: T3, Corticotropin-releasing factor receptor 2/Corticotropin-releasing factor-binding protein; test: activators of CRF receptor 2 with binding protein – uHTS hits, confirmation (AID 602473); assay type: functional; settings: read-out: EC50_Mean
[11] = tested on: Streptococcus sp. 'group A'; test: Streptococcus pyogenes SK(-)GAS viability under kanamycin – luminescence, BacTiterGlo, confirmation, counter-screen for streptokinase expression inhibitor project, dose response (AID 1900); assay type: functional, organism-based
Streptokinase A = molecular target: T4, Streptokinase A (Streptococcus pyogenes serotype M1, UniProt P10520); test: viability-normalized secreted streptokinase activity reduction – plasminogen activation absorbance, OD405, dose response (AID 1914); assay type: functional, Streptococcus pyogenes M1 GAS;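 further: secreted streptokinase activity via plasminogen activation per viability signal from cell pellet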
T4 sequence (P10520 whole entry): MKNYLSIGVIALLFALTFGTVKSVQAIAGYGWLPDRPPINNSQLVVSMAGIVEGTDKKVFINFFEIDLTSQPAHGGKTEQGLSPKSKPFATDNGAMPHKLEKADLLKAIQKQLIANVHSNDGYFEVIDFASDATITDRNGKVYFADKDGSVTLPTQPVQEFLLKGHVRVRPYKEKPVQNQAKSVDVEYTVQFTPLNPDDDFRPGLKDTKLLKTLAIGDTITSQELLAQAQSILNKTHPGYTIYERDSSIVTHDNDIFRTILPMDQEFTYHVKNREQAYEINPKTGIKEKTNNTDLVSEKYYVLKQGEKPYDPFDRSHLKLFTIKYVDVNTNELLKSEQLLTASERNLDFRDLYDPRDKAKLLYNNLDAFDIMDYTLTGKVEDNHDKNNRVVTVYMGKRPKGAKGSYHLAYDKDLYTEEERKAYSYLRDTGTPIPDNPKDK

Streptococcus = test: GAS UMAA2166 growth inhibition – luminescence, BacTiterGlo, counter-screen for streptokinase expression inhibitor project, dose response (AID 1915); assay type: functional, organism-based;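 further: potency for reduction of bacterial viability or growth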
H9c2 = test: cells; assay type: functional, cell-based; settings: Rattus norvegicus, H9c2, Myocardium;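 further: confirmatory concentration-response retest of ultra-high-throughput screening hits for modulation of myocardial damage; cell death induced by hydrogen peroxide oxidative stress; compound pretreatment for 60 min then peroxide exposure for 2 h; potency is for protecting the cells against peroxide damage rather than for killing them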
[12] = molecular target: T5, Heat shock factor protein 1 (Mus musculus, UniProt P38532); test: decrease of HSF1-responsive luciferase luminescence – cell-based, NIH3T3, dose retest, confirmation (AID 2382); assay type: functional;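 further: NIH3T3 fibroblasts with HSF1-driven luciferase reporter stressed by proteasome inhibitor MG132; luminescence from HSF1-driven luciferase expression after 8 hours of MG132 stress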
T5 sequence (P38532 whole entry): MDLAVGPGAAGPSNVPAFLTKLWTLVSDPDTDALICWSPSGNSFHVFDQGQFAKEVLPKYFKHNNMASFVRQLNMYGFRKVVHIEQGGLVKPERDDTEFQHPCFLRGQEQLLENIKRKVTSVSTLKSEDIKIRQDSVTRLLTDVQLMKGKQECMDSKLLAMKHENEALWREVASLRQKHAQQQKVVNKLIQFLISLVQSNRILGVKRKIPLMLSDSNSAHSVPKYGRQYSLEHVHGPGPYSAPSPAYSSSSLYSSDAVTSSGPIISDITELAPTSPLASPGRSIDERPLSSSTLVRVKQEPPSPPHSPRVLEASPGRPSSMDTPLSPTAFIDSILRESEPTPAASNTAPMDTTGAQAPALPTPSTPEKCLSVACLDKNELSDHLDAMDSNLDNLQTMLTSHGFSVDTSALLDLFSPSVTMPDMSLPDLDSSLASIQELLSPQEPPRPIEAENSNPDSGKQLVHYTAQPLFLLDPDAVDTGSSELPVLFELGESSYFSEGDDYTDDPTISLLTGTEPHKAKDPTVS

[13] = reduction of Shn3 3'UTR-driven luciferase in osteoblasts – cell-based, Clone20 osteoblasts, firefly luciferase, cherry-picked, dose response (AID 624132); assay type: functional;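 further: firefly luciferase luminescence from reporter carrying the Shn3 3'UTR in osteoblasts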
Cytochrome P450 1A2 = molecular target: T6, Cytochrome P450 1A2 (Homo sapiens, UniProt P05177);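 further: PubChem cytochrome P450 panel assay, CYP1A2 panel member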
T6 sequence (P05177 whole entry): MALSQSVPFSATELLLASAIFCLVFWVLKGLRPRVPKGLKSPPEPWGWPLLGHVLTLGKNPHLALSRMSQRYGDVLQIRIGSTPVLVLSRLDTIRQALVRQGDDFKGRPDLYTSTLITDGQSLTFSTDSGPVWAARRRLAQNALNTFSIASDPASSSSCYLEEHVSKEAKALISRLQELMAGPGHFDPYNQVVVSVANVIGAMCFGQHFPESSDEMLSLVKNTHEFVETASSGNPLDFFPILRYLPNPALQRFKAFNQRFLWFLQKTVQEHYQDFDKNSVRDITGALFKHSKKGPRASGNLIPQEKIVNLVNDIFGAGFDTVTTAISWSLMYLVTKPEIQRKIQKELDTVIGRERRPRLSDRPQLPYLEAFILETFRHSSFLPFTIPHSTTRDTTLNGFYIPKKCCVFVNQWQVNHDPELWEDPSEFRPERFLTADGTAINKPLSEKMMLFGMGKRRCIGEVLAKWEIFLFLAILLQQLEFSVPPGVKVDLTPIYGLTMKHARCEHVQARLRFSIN

Cytochrome P450 3A4 = Cytochrome P450 3A4 (Homo sapiens, UniProt P08684);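 further: CYP3A4 tested as one member of a cytochrome P450 panel screen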
Sequence of Cytochrome P450 3A4 (P08684 whole entry): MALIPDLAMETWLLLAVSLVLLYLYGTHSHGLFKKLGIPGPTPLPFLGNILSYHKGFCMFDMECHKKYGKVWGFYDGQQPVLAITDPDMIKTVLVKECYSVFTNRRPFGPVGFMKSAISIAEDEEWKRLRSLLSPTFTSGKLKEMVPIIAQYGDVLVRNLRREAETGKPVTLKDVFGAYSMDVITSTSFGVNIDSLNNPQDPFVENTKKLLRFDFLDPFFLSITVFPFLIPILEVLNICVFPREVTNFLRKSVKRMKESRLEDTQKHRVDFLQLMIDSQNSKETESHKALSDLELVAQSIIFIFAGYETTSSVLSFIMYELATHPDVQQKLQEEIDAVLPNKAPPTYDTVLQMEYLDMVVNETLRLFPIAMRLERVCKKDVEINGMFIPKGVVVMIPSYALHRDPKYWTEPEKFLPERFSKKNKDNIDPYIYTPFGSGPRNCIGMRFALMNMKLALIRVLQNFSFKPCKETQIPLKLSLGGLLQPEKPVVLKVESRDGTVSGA

Sequence of FAD-linked sulfhydryl oxidase ALR (P55789 whole entry, the tested form may be a part): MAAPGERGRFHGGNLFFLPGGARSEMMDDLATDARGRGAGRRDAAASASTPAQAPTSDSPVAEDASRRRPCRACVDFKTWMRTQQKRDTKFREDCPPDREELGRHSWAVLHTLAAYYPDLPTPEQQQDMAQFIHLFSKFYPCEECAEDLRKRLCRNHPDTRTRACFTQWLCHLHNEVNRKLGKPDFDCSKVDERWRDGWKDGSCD

Cc1ccc(CN2CCN(/N=C/c3ccc(O)c(O)c3)CC2)cc1
AC50 [1]: 3.11 µM (active)

CCC(=O)OC1(C)C(=O)C=C2C=C(c3ccsc3)OC=C2C1=O (stereo unspecified)
EC50 [2]: 34.1 µM (active)
EC50 [3]: 32.5 µM (active)

COc1cc(/C=N/NC(=O)c2cccc(S(=O)(=O)N3CCCC3)c2)cc(OC)c1O
AC50 [1]: 0.039 µM (active)

COc1ccccc1N1C(=O)NC(=O)/C(=C\c2c[nH]c3ccccc23)C1=O
EC50 [2]: > 300 µM (not active)
EC50 [3]: > 300 µM (not active)

C[C@H](NC1=NS(=O)(=O)c2ccccc21)C(=O)OCc1cc([N+](=O)[O-])cc2c1OCOC2
EC50 [4]: > 112 µM (not active)
EC50 [5]: > 112 µM (not active)

O=C(O)c1ccccc1NS(=O)(=O)c1cccc(NS(=O)(=O)c2cc(Br)ccc2Br)c1
IC50 (Genome polyprotein): 28.3 µM (active)

CCc1ccc(/C=C2\SC(=S)N(CCC(=O)NCCCN3CCOCC3)C2=O)cc1
EC50 (BJ [6]): 1.24 µM (active)
EC50 (BJ [7]): > 150 µM (not active)
EC50 [8]: 5.87 µM (active)

CCOc1cc(/C=C2\C(=O)ON=C2c2ccccc2)ccc1OC
IC50 (Genome polyprotein): 27.1 µM (active)

COc1cc(/C=N/N2C(C)CCCC2C)cc(OC)c1O (stereo unspecified)
AC50 [1]: 1.1 µM (active)

Cc1cccc(C(=O)O/N=C(\N)c2ccccn2)c1
EC50 [4]: 7.75 µM (active)
EC50 [5]: 20.4 µM (active)

CCOC(=O)N1CCN(C(=O)CNC2CCCCCCC2)CC1
EC50 [4]: > 112 µM (not active)
EC50 [5]: 16.7 µM (active)

CCOC(=O)c1c(NC(=O)Nc2ccc(F)cc2)sc2c1CCN(C)C2
EC50 [2]: 27.7 µM (inconclusive)
EC50 [3]: 39.8 µM (active)

CC(=O)Oc1ccc(-c2cc3ccc(OC(C)=O)cc3oc2=O)cc1
EC50 [4]: > 112 µM (not active)

CC1(C)CC(=O)C2=C(C1)OC(/N=C/N1CCCC1)=C(C#N)C2c1ccccc1 (stereo unspecified)
EC50 [2]: > 300 µM (not active)
EC50 [3]: > 300 µM (not active)
IC50 [9]: > 47.1 µM (inactive)
EC50 [10]: > 53 µM (inactive)

CCc1nnc2n1N=C(c1ccc([N+](=O)[O-])cc1)CS2
AC50 [1]: 6.01 µM (active)

CCC(=O)N1CCN=C1SCc1cccc(C(F)(F)F)c1
AC50 [1]: 4.38 µM (active)

CCC(C)NC(=O)c1cc(-c2ccccc2O)on1 (stereo unspecified)
EC50 [4]: > 112 µM (not active)
EC50 [5]: > 112 µM (not active)

CC1CCCCC1NC(=O)c1ccc(S(=O)(=O)NNC(=O)c2ccncc2)cc1 (stereo unspecified)
AC50 [1]: 2.99 µM (active)

CN(C)c1ccc(NC(=O)CCn2c(=S)oc3ccccc32)cc1
AC50 [1]: 14.6 µM (active)

CC(=O)N(C)c1ccc(N=NC2C(=O)N(C(N)=S)N=C2C)cc1 (stereo unspecified)
EC50 [2]: > 300 µM (not active)
EC50 [3]: 34.6 µM (active)

O=C(NNC(=O)c1ccccc1OCc1ccccc1Cl)c1csc(N2CCOCC2)n1
EC50 [11]: 12.8 µM (active)
EC50 (Streptokinase A): > 150 µM (not active)
EC50 (Streptococcus): > 150 µM (not active)
IC50 (H9c2): 12.8 µM (active)

CCN=C(S)N(C)CCc1cc2c(c(OC)c1C=C1C(=O)N(C)C(=O)N(C)C1=O)OCO2
EC50 [2]: > 300 µM (not active)
EC50 [3]: > 300 µM (not active)
EC50 [12]: > 195 µM (not active)

COC(=O)CC1=NN(c2ccccc2)C(=O)/C1=C\c1ccc(OC)cc1
IC50 (Genome polyprotein): 33.3 µM (active)

Nc1nnc(SCC(=O)Nc2ccc(N3CCOCC3)cc2)s1
AC50 [13]: 16.8 µM (active)

CSC1=C(C#N)C(=O)NC(c2ccccc2O)S1 (stereo unspecified)
IC50 (Genome polyprotein): 45.2 µM (active)

O=C(NCC1CCCO1)c1cccc(NC(=O)c2ccc(Br)cc2)c1 (stereo unspecified)
EC50 [4]: > 112 µM (not active)
EC50 [5]: > 112 µM (not active)

CCOC(=O)C1=C(O)/C(=C/c2cc(OC)c(OC)c(OC)c2)N=C1C
EC50 [4]: > 112 µM (not active)
EC50 [5]: > 112 µM (not active)
AC50 (Cytochrome P450 1A2): 14.1 µM (inconclusive)
AC50 (Cytochrome P450 3A4): 17.8 µM (inconclusive)

O=C(NC1CCCCC1)N(C1=NCCCCC1)c1ccc(Br)cc1
EC50 [4]: > 112 µM (not active)
EC50 [5]: > 112 µM (not active)
